Like-named read-outs stand apart in the source and are kept apart here. Where a SMILES comes first, the peptide text is derived from it. Bridges are numbered along the chain shown (N, C = ends).
Columns and labels:
[1] = Liposome leakage (carboxyfluorescein release) membrane permeabilization assay; format: biochemical, E. coli; conditions: carboxyfluorescein release at 45 min, Tris buffer pH 7.4, current study
Description: Each marker represents the mean leakage in Tris buffer, pH 7.4, with standard deviations from three experiments done at individual peptide concentrations, i.e., with no cumulative additions.
Liposomes were manufactured and their permeabilization was assayed as described previously.[48] Briefly, by dissolving an E. coli polar lipid extract in chloroform and evaporating the solvent under agitation, with a nitrogen gas flow, and then storing in vacuum, dry films were formed on the walls of a glass flask. Lipid films were resuspended in an aqueous solution of 100 mM 5(6)-carboxyfluorescein in 10 mM Tris (set to pH 7.4 at 37 °C). Suspensions were subjected to repeated extrusion through a 100 nm polycarbonate membrane in order to reduce multilamellar structures and polydispersity. Untrapped carboxyfluorescein was removed by gel filtration. Membrane permeability was measured by monitoring carboxyfluorescein efflux from the liposomes to the external low-concentration environment, resulting in loss of self-quenching and an increased fluorescence signal. […] The EC50 values are calculated from a sigmoidal dose–response curve with a variable slope to the leakage percentage as a function of the peptide concentration (log 10).

[2] = system: Human Lymphoma Cell Line U-937 GTB; conditions: read-out: cytotoxicity, IC50, lymphoma U937; FMCA, 72 h incubation
Description: The cytotoxicity of the cyclotides was determined using the fluorometric microculture cytotoxicity assay, employing the U-937 a human lymphoma cell line. This assay is based on hydrolysis of the probe, fluorescein diacetate (FDA), by esterase in live cells containing an intact plasma membrane. The cyclotides were tested at a series of concentrations obtained by 2-fold dilutions.
Cytotoxicity activities of the pure cyclotides were evaluated using a fluorometric microculture cytotoxicity assay (FMCA),[57] which is based on the monitoring of fluorescence arising from fluorescein that is produced as a result of fluorescein diacetate (FDA) hydrolysis by cells with intact cell membranes. Human lymphoma cells (U937) suspended in cell-growth medium were dispensed into the microtiter plate containing pure cyclotides. Each well was seeded with 200 μL of cell suspension, containing approximately 20 000 cells, to give a total volume of 200 μL/well. […] After 40 min of incubation at 37 °C the fluorescence was measured at 485 nm excitation and 538 nm emission. The fluorescence in each well is proportional to the number of living cells, and cytotoxicity activity of a fraction is inversely proportional to fluorescence intensity. […] The IC50 values were calculated from a sigmoidal dose–response curve with a variable slope to the percentage viability as a function of the peptide concentration (log 10).

[3] = system: Candida albicans (ATCC 90028); experiment: Microdilution MIC assay, C. albicans; format: cell-based; conditions: lowest concentration inhibiting 100% growth; Tris buffer, triplicate
Excerpt: (§1) Cyclotides isolated from G. repens were subjected to a microdilution assay on 96-well plates to determine minimum inhibitory concentration (MIC values), according to a method devised to minimize the activity-inhibiting presence of rich growth media.[43] For these experiments, bacterial strains of E. coli, P. aeruginosa, and S. aureus and the fungal strain of C. albicans were used. The MIC was taken as the lowest concentration of a cyclotide where the visible growth of microbes was inhibited, i.e., 100% of cell death.
(§2) The dried cyclotides were subjected to MIC determination[43] against Staphylococcus aureus (ATCC 29213), Escherichia coli (ATCC 25922), Pseudomonas aeruginosa (ATCC 27853), and Candida albicans (ATCC 90028). The cyclotides (stock concentration of 65 μM) were dissolved in Tris buffer for the assay, and a concentration gradient of the cyclotides was screened against a microbial suspension mixed in a 1:1 ratio in each well (50 μL:50 μL). Microorganisms were grown in 3% tryptic soy broth (TSB) at 37 °C overnight, after centrifuging at 2000 rpm for 6–7 min, and bacterial pellets were washed twice and dissolved with Tris buffer. The absorbance was measured at 600 nm, and the solution was diluted to a concentration of 1 × 10^6 bacteria/mL. Dilution series were prepared using a serial dilution method with cyclotides and Tris buffer. In each plate, 50 μL of microbial suspension (approximately 50 000 cells/well) was added and incubated for 5 h. After incubation, 5 μL of 20% TSB was added to each well. Each plate was incubated based on the growth cycle of the microbe for 6, 9, 10, and 12 h at 37 °C. The minimum concentration that inhibited 100% growth was recorded as the MIC value. Triplicate assays were carried out for each sample.

[4] = system: Escherichia coli (ATCC 25922); experiment: Microdilution MIC assay, E. coli; format: cell-based; conditions: for antimicrobial activity, MIC, Escherichia coli: lowest concentration inhibiting 100% growth, Tris buffer, triplicate
Excerpt: as §1, §2

[5] = system: Pseudomonas aeruginosa (ATCC 27853); experiment: Microdilution MIC assay, P. aeruginosa; format: cell-based; conditions: lowest concentration inhibiting 100% growth; Tris buffer, triplicate
Excerpt: as §1, §2

[6] = system: Staphylococcus aureus (ATCC 29213); experiment: Microdilution MIC assay, S. aureus; format: cell-based; conditions: lowest concentration inhibiting 100% growth; Tris buffer, triplicate
Excerpt: as §1, §2

[7] = system: Staphylococcus aureus (ATCC 29213); design: method as in PMID 28669767; conditions: previously reported; cited from earlier work
[8] = system: Human Lymphoma Cell Line U-937 GTB; design: method as in PMID 21491023; conditions: previously reported; read-out: cytotoxicity, IC50, lymphoma U937; cited from earlier work
[9] = previously; cited from earlier work
[10] = system: standard microbial strains (E. coli, P. aeruginosa, S. aureus, C. albicans); experiment: Microdilution MIC assay, whole panel of microorganisms; format: cell-based; conditions: highest tested concentration 32.5 μM
Excerpt: as §1
as §2, with “In each plate, 50 μL of microbial suspension (approximately 50 000 cells/well) was added and incubated for 5 h. After incubation, 5 μL of 20% TSB was added to each well. Each plate was incubated based on the growth cycle of the microbe for 6, 9, 10, and 12 h at 37 °C. The minimum concentration that inhibited 100% growth was recorded as the MIC value. Triplicate assays were carried out for each sample.” left out

[11] = system: Candida albicans (ATCC 90028); design: method as in PMID 28669767; conditions: previously reported; cited from earlier work
[12] = system: Escherichia coli (ATCC 25922); design: method as in PMID 28669767; conditions: previously reported; cited from earlier work
[13] = system: Pseudomonas aeruginosa (ATCC 27853); design: method as in PMID 28669767; conditions: previously reported; cited from earlier work
[14] = design: method as in PMID 28669767; conditions: previous liposome leakage studies; cited from earlier work

CC[C@H](C)[C@@H]1NC(=O)[C@H](C)NC(=O)[C@H](CO)NC(=O)[C@H](CO)NC(=O)[C@H]([C@@H](C)CC)NC(=O)[C@@H]2CSSC[C@@H]3NC(=O)[C@H](C(C)C)NC(=O)[C@H](CCCCN)NC(=O)[C@H](CC(N)=O)NC(=O)[C@H](CCCCN)NC(=O)[C@@H]4CSSC[C@H](NC(=O)[C@H](CO)NC(=O)[C@H](CCC(=O)O)NC(=O)CNC(=O)[C@H](CSSC[C@H](NC(=O)CNC1=O)C(=O)N[C@@H](CO)C(=O)N4)NC(=O)[C@@H]1CCCN1C(=O)[C@H]([C@@H](C)CC)NC(=O)CNC(=O)[C@H](CC(N)=O)NC(=O)[C@H](CCCCN)NC(=O)[C@H](Cc1ccc(O)cc1)NC3=O)C(=O)N[C@@H](C(C)C)C(=O)N[C@@H](Cc1c[nH]c3ccccc13)C(=O)N[C@@H]([C@@H](C)CC)C(=O)N1CCC[C@H]1C(=O)N2 [gere 1] (cyclo(AIGCSCKNKVCYKNGIPCGESCVWIPCISS); disulfide 4-18, 6-22, 11-27)
EC50 [1]: 70 nM | IC50 [2]: 2000 nM | antimicrobial activity, MIC, Candida albicans [3]: >10 µM | fold more active than cyO2 against E. coli ([4]; gere 1 versus cyO2 MIC): 5 fold | antimicrobial activity, MIC, Escherichia coli [4]: 4.0 µM | antimicrobial activity, MIC, Pseudomonas aeruginosa [5]: 7.9 µM | antimicrobial activity, MIC, Staphylococcus aureus [6]: >10 µM

CC[C@H](C)[C@@H]1NC(=O)CNC(=O)[C@H](CC(N)=O)NC(=O)[C@H]([C@@H](C)CC)NC(=O)[C@H](Cc2ccc(O)cc2)NC(=O)[C@@H]2CSSC[C@@H]3NC(=O)CNC(=O)[C@H](Cc4ccccc4)NC(=O)[C@H](Cc4ccc(O)cc4)NC(=O)[C@H](C)NC(=O)[C@@H]4CSSC[C@H](NC(=O)[C@H](CO)NC(=O)[C@H](CSSC[C@H](NC(=O)[C@H](C)NC1=O)C(=O)NCC(=O)N[C@@H](CCC(=O)O)C(=O)N[C@@H](CO)C(=O)N4)NC(=O)CNC(=O)[C@@H]1CCCN1C(=O)[C@H]([C@@H](C)CC)NC(=O)[C@H](Cc1c[nH]c4ccccc14)NC3=O)C(=O)N[C@@H](CCCCN)C(=O)N[C@@H](CC(=O)O)C(=O)N[C@@H](CCCCN)C(=O)N[C@@H](C(C)C)C(=O)N2 [gere 2]
antimicrobial activity, MIC, Candida albicans [3]: >10 µM | antimicrobial activity, MIC, Escherichia coli [4]: >10 µM | antimicrobial activity, MIC, Pseudomonas aeruginosa [5]: >10 µM | antimicrobial activity, MIC, Staphylococcus aureus [6]: >10 µM

CC[C@H](C)[C@@H]1NC(=O)[C@@H]2CSSC[C@@H]3NC(=O)[C@H](C(C)C)NC(=O)[C@H](CCCCN)NC(=O)[C@H](CC(=O)O)NC(=O)[C@H](CCCCN)NC(=O)[C@@H]4CSSC[C@H](NC(=O)[C@H](CO)NC(=O)[C@H](CCC(=O)O)NC(=O)CNC(=O)[C@H](CSSC[C@H](NC(=O)CNC(=O)[C@H]([C@@H](C)CC)NC(=O)[C@H](C(C)C)NC(=O)[C@H]([C@@H](C)O)NC(=O)[C@H]([C@@H](C)O)NC1=O)C(=O)N[C@@H](CO)C(=O)N4)NC(=O)[C@@H]1CCCN1C(=O)[C@H](C(C)C)NC(=O)CNC(=O)[C@H](CC(N)=O)NC(=O)[C@H]([C@@H](C)O)NC(=O)[C@H](Cc1ccc(O)cc1)NC3=O)C(=O)N[C@@H](C(C)C)C(=O)N[C@@H](Cc1ccccc1)C(=O)N[C@@H]([C@@H](C)CC)C(=O)N1CCC[C@H]1C(=O)N2 [gere 3]
antimicrobial activity, MIC, Candida albicans [3]: >10 µM | antimicrobial activity, MIC, Escherichia coli [4]: >10 µM | antimicrobial activity, MIC, Pseudomonas aeruginosa [5]: >10 µM | antimicrobial activity, MIC, Staphylococcus aureus [6]: >10 µM

CC[C@H](C)[C@@H]1NC(=O)[C@H](Cc2ccccc2)NC(=O)[C@H](C(C)C)NC(=O)[C@@H]2CSSC[C@@H]3NC(=O)[C@H](CO)NC(=O)[C@@H]4CSSC[C@H](NC(=O)[C@@H]5CCCN5C(=O)[C@H](C(C)C)NC(=O)CNC(=O)[C@H](CC(N)=O)NC(=O)[C@H](CC(N)=O)NC(=O)[C@H](Cc5ccc(O)cc5)NC(=O)[C@H](CSSC[C@H](NC(=O)[C@@H]5CCCN5C1=O)C(=O)N[C@@H](Cc1ccccc1)C(=O)N[C@@H]([C@@H](C)O)C(=O)N[C@@H]([C@@H](C)O)C(=O)N[C@@H](C(C)C)C(=O)N[C@@H](C(C)C)C(=O)NCC(=O)N4)NC(=O)[C@H](C(C)C)NC(=O)[C@H](CCCCN)NC(=O)[C@H](CC(=O)O)NC(=O)[C@H](CCCCN)NC3=O)C(=O)NCC(=O)N[C@@H](CCC(=O)O)C(=O)N[C@@H](CO)C(=O)N2 [gere 4]
antimicrobial activity, MIC, Candida albicans [3]: >10 µM | antimicrobial activity, MIC, Escherichia coli [4]: >10 µM | antimicrobial activity, MIC, Pseudomonas aeruginosa [5]: >10 µM | antimicrobial activity, MIC, Staphylococcus aureus [6]: >10 µM

CC[C@H](C)[C@@H]1NC(=O)[C@@H]2CCCN2C(=O)[C@H](Cc2c[nH]c3ccccc23)NC(=O)[C@H](CO)NC(=O)[C@@H]2CSSC[C@@H]3NC(=O)[C@H]([C@@H](C)O)NC(=O)[C@H](CCC(=O)O)NC(=O)CNC(=O)[C@@H]4CSSC[C@H](NC(=O)CNC(=O)[C@H](CCC(N)=O)NC(=O)[C@H]([C@@H](C)O)NC(=O)[C@H](Cc5ccc(O)cc5)NC(=O)[C@H](CSSC[C@H](NC1=O)C(=O)N[C@@H](CCCCN)C(=O)N[C@@H](CCCNC(=N)N)C(=O)N[C@@H](CC(N)=O)C(=O)NCC(=O)N[C@@H](CC(C)C)C(=O)N1CCC[C@H]1C(=O)N[C@@H](C(C)C)C(=O)N4)NC(=O)[C@H]([C@@H](C)O)NC(=O)CNC(=O)[C@H](CC(C)C)NC(=O)[C@H]([C@@H](C)O)NC3=O)C(=O)N[C@@H]([C@@H](C)O)C(=O)N2 [kB7, kalata B7] (cyclo(CGETCTLGTCYTQGCTCSWPICKRNGLPV); disulfide 1-15, 5-17, 10-22)
EC50 [1]: 94 nM | antimicrobial activity, MIC, Staphylococcus aureus [7]: >10 µM | IC50 [8]: > 10000 nM | IC50 [2]: 10200 nM | concentration at which active in radial diffusion assays [9]: 2 mM | minimum inhibitory concentration against panel of microorganisms [10]: ≥ 32.5 µM | antimicrobial activity, MIC, Candida albicans [11]: >10 µM | antimicrobial activity, MIC, Escherichia coli [12]: >10 µM | antimicrobial activity, MIC, Pseudomonas aeruginosa [13]: 1.25 µM

cycloviolacin O2 [cyO2, reference compound]
antimicrobial activity, MIC, Staphylococcus aureus [7]: >10 µM | EC50 [14]: 76 nM | IC50 [8]: 260 to 1800 nM | antimicrobial activity, MIC, Candida albicans [11]: >10 µM | antimicrobial activity, MIC, Escherichia coli [12]: >10 µM | antimicrobial activity, MIC, Pseudomonas aeruginosa [13]: 10 µM

Source: publication PMC9887600, “Screening for Cyclotides in Sri Lankan Medicinal Plants: Discovery, Characterization, and Bioactivity Screening of Cyclotides from Geophila repens” (Journal of Natural Products, 2022)
